Experiments:
GLUT-5 mRNA = assay: Real-time RT-PCR of GLUT-5 mRNA in PANC-1 cells; assay type: cell-based; conditions: 5.5 mM fructose, 24 h
Experimental: FIG. 22 depicts […] mRNA levels in pancreatic cancer cells in accordance with an embodiment of the present invention. Quantitative real-time RT-PCR was used to measure GLUT-5 mRNA levels in pancreatic cancer cells (PANC-1), following culture in 2 mM glucose, 5.5 mM glucose, or 5.5 mM fructose for 4 h and 24 h.
Brit J Biomed Sci 56(4): 285-292, 1999; Rogers S, Docherty S E, Slavin J L, Henderson and Best J D. Differential expression of GLUT12 in breast cancer and normal breast tissue. Cancer Letters 193(2): 225-233, 2003). […] Real-time RT-PCR was used to measure GLUT-5 mRNA expression following 2 mM, and 5.5 mM glucose-, and 5.5 mM fructose-treatment for 4 h, and 24 h respectively. GLUT-5 mRNA was expressed as the fold-change relative to GLUT-5 mRNA levels in 2 mM glucose-treated cells. As depicted in FIG. 22, at 4 h, GLUT-5 mRNA levels were low in both the 5.5 mM glucose-, and fructose-treated PANC-1 cells. […] This agrees with other studies which have reported fructose-induced GLUT-5 mRNA expression in colon cancer (74).

normal pancreas tissue = assay: Substrate oxidation with 13C tracers in primary culture of normal pancreas; assay type: cell-based, human; conditions: 5.5 mM, 72 h
Experimental: FIG. 31 depicts substrate oxidation in accordance with an embodiment of the present invention. Substrate oxidation in a primary culture of a normal pancreas (left), and a pancreatic cancer (right) following incubation in 2 mM, or 5 mM glucose, or 5 mM fructose for 72 h.
In separate studies, the inventors treated primary cultures of 4 pancreatic adenocarcinomas, and 3 normal pancreas tissues with the [1,2-^13C2]D-glucose-, or -fructose-tracers as before for 72 h, and carried out metabolic studies.

AP-1 = AP-1 probe binding assay on nuclear extracts of a primary culture of a pancreatic tumor; assay type: cell-based, human; conditions: 5.5 mM sugar, 48 h
Experimental: FIG. 24 depicts luciferase activity of PANC-1 cells and primary culture of surgically resected pancreatic tumor cells in accordance with an embodiment of the present invention. PANC-1 pancreatic cancer cells and a primary culture of a surgically resected pancreatic tumor were incubated in 2 mM glucose, 5.5 mM glucose or 5.5 mM fructose for 48 h, after which nuclear extracts were incubated with a biotinylated AP-1 probe, and detected by an antibody-linked colorimetric method. *, p<0.01
In separate experiments PANC-1 cells, and primary cultures of surgically resected pancreatic tumors were incubated in 2 mM glucose, or 5.5 mM glucose or 5.5 mM fructose for 48 h, after which nuclear extracts were incubated with a biotinylated AP-1 probe in binding buffer. AP-1/AP1 probe complexes were next conjugated to a streptavidin-coated assay plate and detected using an AP-1 specific antibody, followed by binding of a horseradish-peroxidase conjugated secondary antibody, and detection by a colorimetric reagent.

[1] = test system: primary pancreatic cancers; assay: BRDU uptake in primary cultures of surgically resected pancreatic cancers; assay type: cell-based, human; conditions: all 5 primary pancreatic cancers; 5.5 mM fructose compared to 5.5 mM glucose, 72 h
Experimental: FIG. 18 depicts BRDU incorporation by pancreatic cells in accordance with an embodiment of the present invention. Freshly resected pancreatic cancers were mechanically and enzymatically dispersed, and cells were pre-incubated in 2 mM glucose prior to treatment with 5.5 mM glucose or fructose for 72 h. BRDU (10 μM) was added to the medium at 48 h, and BRDU-uptake quantified at 72 h.
As immortalized cell-lines, such as PANC-1 pancreatic cancer cells, can become dedifferentiated after repeated passages, and in order to translate these findings in the PANC-1 cells to patients with pancreatic cancer, the inventors also examined proliferative rates in primary cultures of fresh surgically resected pancreatic cancers, following incubation in 2 mM, and 5.5 mM glucose or 5.5 mM fructose. Briefly, after mechanical and enzymatic (trypsin and DNAse) disaggregation, aliquots of tumor cells were seeded in 6-well plates, and incubated in standard DMEM media with 10% fetal bovine serum, and 2 mM glucose, 5.5 mM glucose, or 5.5 mM fructose for 72 h. As before in the PANC-1 experiments, BRDU (10 μM) was added in the […] of incubation in the sugars, following which BRDU-uptake was quantified.

MAPK pathway = assay: Western blot of MAPK pathway in breast cancer cells; assay type: cell-based
Experimental: FIG. 11 depicts increased breast cancer phosphorylated-MEK, phosphorylated Rsk, and phosphorylated CREB in accordance with an embodiment of the present invention. MCF-7 breast cancer cells were incubated in 2 mM glucose, 5 mM glucose or 5 mM fructose for 24 hours, after which Western blot analysis on total protein lysates was employed to examine components of the MAP kinase pathway. […] Total MEK, Rsk, and CREB levels, and β-actin served as loading controls.
Although several signal transduction pathways are likely involved in the fructose-mediated enhanced breast cancer growth and while not wishing to be bound by any particular theory, the inventors believe that the MAP-kinase pathway is involved. The inventors have used Western blot analysis to examine the MAPK pathway in breast cancer cells incubated in 2 mM glucose, 5.5 mM glucose, and 5.5 mM fructose for 48 hours. […] Activation of MEK, and subsequently ERK results in phosphorylation of p90^Rsk, which leads to transcriptional activation of CREB and AP1, which bind to cAMP or AP1 response elements respectively, activating gene transcription and promoting cellular growth.

MDA-MB231 cells = assay: Breast cancer cell proliferation in fructose versus glucose (MTT assay); assay type: cell-based; conditions: 5 mM fructose compared to 5 mM glucose, 8-72 h
Experimental: (§1) Estrogen receptor (ER) positive MCF-7, and ER negative MDA-MB231 cells were plated in 5 mM fructose or glucose for times between 8-72 h, and proliferative rates measured using MTT assay. *, p<0.05; **, p<0.01.
(§2) FIG. 5 depicts fructose-mediated increased breast cancer proliferation in accordance with an embodiment of the present invention. ER positive MCF-7, and ER negative MDA-MB231 cells were plated in a range of fructose or glucose concentrations (5-25 mM) for 72 h, after which proliferative rates were measured using an MTT assay. *, p<0.05 for concentrations between 5-25 mM fructose versus glucose.
(§3) Standard media for breast cancer cell culture contain either 5-7 mM (low) and 12-25 mM (high) glucose concentrations. Estrogen receptor (ER) positive MCF-7, and ER negative MDA-MB231 cells were cultured overnight in 2 mM glucose standard DMEM medium containing 10% fetal bovine serum prior to incubation for periods between 8, and 72 hours in standard DMEM medium containing 10% fetal bovine serum, and 5 mM glucose or 5 mM fructose.
(§4) Proliferative rates were then measured in replicate (minimum of 6) aliquot wells of the breast cancer cells grown in glucose, or fructose containing medium. […] In separate experiments, proliferative rates of the MCF-7, and MDA-MB231 breast cancer cells were compared following culture in a range of fructose, and glucose concentrations (2-25 mM) for 72 hours.

MCF-7 cells = assay: as above; assay type: cell-based; conditions: 5 mM fructose compared to 5 mM glucose, 8-72 h
Experimental: as §1, §2, §3, §4

[2] = breast cancer cells, 5.5 mM fructose, 24 h, vs 5.5 and 2 mM glucose

O=C(CO)[C@@H](O)[C@H](O)[C@H](O)CO [fructose]
GLUT-5 mRNA levels relative to 2 mM glucose-treated cells (GLUT-5 mRNA): 1.5 fold higher | GLUT-5 mRNA levels relative to 5.5 mM glucose-treated cells (GLUT-5 mRNA): 1.75 fold higher | substrate oxidation to CO2 (normal pancreas tissue): effectively oxidizes | increase in AP-1 activation compared to 2 mM glucose (AP-1): 2.1 fold | proliferative rates (BRDU-uptake) [1]: higher proliferative rates | phospho-MEK (pMEK) expression (MAPK pathway; MCF-7 and MDA-MB231, 5.5 mM fructose vs 5.5 and 2 mM glucose): increased expression | phospho-CREB (pCREB) (MAPK pathway; [2]): increased | phospho-Rsk (pRsk) (MAPK pathway; [2]): increased | proliferative rates (MDA-MB231 cells): higher proliferative rates | proliferative rates (MCF-7 cells): higher proliferative rates

From patent publication US8241607B2, “Use of fructose-based compounds for the diagnosis of cancer” (priority 2005, dated 2012)
